The source of these data is a melting point compilation (Tetko et al.; mined from patent text by program, amines drawn as free bases though some values may be those of a salt).

The structures appear in SMILES notation.

Regarding `CC(C)Cc1ccc2c(c1)C(CO)c1cc(CC(C)C)ccc1-2`, the melting point was 105 °C.

`O=C(NCCO[N+](=O)[O-])c1cscn1` yielded a melting point of 105 to 108 °C.

`CS(=O)(=O)c1ccc(-c2c(-c3ccccc3)sc3ccccc23)cc1`: the melting point is 173 to 174 °C.

As for `C=CCn1c(=O)c2cccnc2n(-c2cccc([N+](=O)[O-])c2)c1=O`, the melting point is 188 to 189 °C.

Regarding `O=C(O)c1cccc2c1S(=O)(=O)c1ccccc1C2=O`, the melting point is 237 °C.

Compound `CCOP(=O)(OCC)c1cc2cc([N+](=O)[O-])c(Cl)cc2[nH]c1=O` registered a melting point of 258 to 262 °C.

`CCc1cccc2nc(C(=O)OC)c(C(=O)OC)c(O)c12` displayed a melting point of 111 to 114 °C.

The compound `CC1(c2ccc(-c3ccccc3)cc2)OC(=O)C(OCc2ccccc2)=C1O` (stereo unspecified) registered a melting point of 182 to 183 °C.

`Cc1ccc(-c2ccc3c(c2)C=C(C(=O)NC2CCN(CCC4CCCCC4)CC2)CCO3)cc1` had a melting point of 193 to 196 °C.

In turn, `O=C1Cc2cccc(OCC3CO3)c2ON1` (stereo unspecified) gave a melting point of 158 to 160 °C.

`CCOC(=O)C1=C(C)NC(C(OCC)OCC)=C(C(=O)OCC)C1c1ccccc1OC` (stereo unspecified): the melting point was in the range of 105 to 107 °C.

`COc1ccc(CCCCCCN)cc1` returned a melting point of 63 to 65 °C.

In the case of `CC(=O)N(CC(=O)N1c2ccccc2N(Cc2ccccc2)C(=O)[C@H]2CCC[C@H]21)Cc1ccccc1` (relative stereo), the melting point lay in the range of 179 to 181 °C.

Compound `CN(C)c1ccc(CC(=O)Nc2cc(CC3SC(=O)NC3=O)ccc2O)cc1` (stereo unspecified) had a melting point of 216 to 218 °C.

Compound `CN1CCc2nc(C(=O)N[C@@H]3C[C@@H](C(=O)O)CC[C@H]3NC(=O)c3cc4cc(Cl)ccc4[nH]3)sc2C1` had a melting point of 234 to 236 °C.

In the case of `O=C(NNS(=O)(=O)c1ccccc1)c1cc2cc(Cl)ccc2o1`, the melting point lay in the range of 181 to 183 °C.

Compound `COc1ccc(Nc2nc3ccccc3c(=O)[nH]2)c(C)c1` came in with a melting point of 270 to 272 °C.

For the compound `CSc1ncc2cc(-c3c(Cl)cccc3Cl)c(=N)n(C)c2n1`, the melting point was 198 to 200 °C.

Compound `CCC1(C)OC(c2ccc(S(C)(=O)=O)cc2)=C(c2ccccc2)C1=O` (stereo unspecified) registered a melting point of 115 to 117 °C.

Turning to `Cc1c(S(=O)(=O)Nc2ccc3[nH]cc(CCN(C)C)c3c2)sc2ccc(Cl)cc12`, the melting point lay within 226 to 227 °C.

As for `CCn1c(-c2ccc(C(F)(F)F)cc2C(F)(F)F)nc(-c2ccncc2)c1-c1ccc(Cl)cc1`, the melting point lay in the range of 148 to 150 °C.

The compound `O=C(O)CCc1oc(-n2ccnc2CO)nc1-c1ccc(Cl)cc1` showed a melting point of 171 to 173 °C.

With `O=C(c1ccccc1CBr)c1cc(Cl)ccc1CBr`, the melting point lay in the range of 152 to 153 °C.

`O=C(N1CCOCC1)N1Cc2c(-c3nc4ccccc4o3)ncn2-c2ccccc21` registered a melting point of 288 to 290 °C.

Regarding `CC1=C(C(=O)OCCN2CCCCC2)C(c2ccccc2C(F)(F)F)c2c(ccnc2OC(C)C)N1` (stereo unspecified), the melting point is 118 to 120 °C.

In turn, `CC(C)CC(C(=O)OCc1ccc([N+](=O)[O-])cc1)N(C(=O)OC(C)(C)C)C1CC1` (stereo unspecified) yielded a melting point of 139 to 143 °C.

For the compound `CC(=O)NCC1CC1c1cccc2nc(C)nn12` (stereo unspecified), the melting point fell in the range of 124 to 126 °C.

Turning to `CC1=C(c2ccccc2)C(=O)N(C(C)(C)c2cc(Cl)c(F)c(Cl)c2)C1`, the melting point is 164 to 167 °C.

The compound `Cc1cc(C)n(Cc2ccc(Cl)c(Cl)c2)c(=O)c1C#N` had a melting point of 139 to 141 °C.

On to `Cc1ccc(-c2ccc3c(c2)C=C(C(=O)NC2CCN(CC4=CCCCCCCC4)CC2)CCO3)cc1`, for which the melting point lay within 128 to 130 °C.

The compound `Brc1ccc(OCc2ccc3ccccc3n2)cc1` returned a melting point of 103 to 105 °C.

For the compound `Cn1c(C(F)(F)F)cc(=O)n(-c2cc(OCC(N)=O)c(Cl)cc2F)c1=O`, the melting point fell in the range of 104 to 106 °C.

For `Cc1oc(-c2ccccc2)nc1CCC(=O)c1ccc(C=C2SC(=O)NC2=O)nc1`, the melting point is 228 to 230 °C.

In turn, `COc1ccc(S(=O)(=O)N2CCCC2c2ccc(F)cc2)cc1` (racemic) registered a melting point of 134 °C.

For `Cc1cc(COc2ccc(C(N)=O)cc2)c2c(N)c(C(N)=O)sc2n1`, the melting point is over 250 °C.

In turn, `CC1(C)CCC(C)(C)c2cc(C(=O)Nc3ccc(OCCN4CCOCC4)cc3)ccc21` yielded a melting point of 134 to 136 °C.

Compound `CC(=O)NC[C@H]1CN(c2cc(F)c(N3CCC(n4nnc(N5CCN(C)CC5)n4)CC3)c(F)c2)C(=O)O1` came in with a melting point of 184 to 188 °C.

Compound `Cc1cccc(-c2csc(N3CCN(C(=O)Nc4onc(C)c4C)CC3)n2)c1` had a melting point of 175 to 176 °C.

For `Nc1nc2c(s1)CCN(CC=Cc1cccc3ccccc13)CC2`, the melting point was 178 to 180 °C.

`COc1cccc(Nc2nc(OCC3CCCCC3)c3[nH]cnc3n2)c1`: the melting point lay in the range of 186 to 189 °C.

In turn, `N=C(Cl)c1c(Cc2ccc(Cl)cc2)nc2ccc(I)cc2c1O` yielded a melting point of 172 to 174 °C.

With `O=C(NC(NCCc1ccccc1)C(Cl)(Cl)Cl)c1ccncc1` (stereo unspecified), the melting point fell in the range of 115 to 117 °C.

Compound `CCC(c1ccc(C(=O)OC)cc1)C(C)NCC(O)c1ccc(O)c(CO)c1` (stereo unspecified) returned a melting point of 73 to 75 °C.

`CN1Cc2cccc(Cl)c2S1(=O)=O`: the melting point lay in the range of 95 to 97 °C.

On to `CN1CCN(CCCNc2ncc3cc(-c4c(Cl)cccc4Cl)c(NC(=O)NCc4ccccc4)nc3n2)CC1`, for which the melting point is 144 to 148 °C.

`C[C@H](Cc1ccc(-c2cc(F)c(C#N)c(F)c2)cc1)c1ccccc1` had a melting point of 60.7 to 62.2 °C.

`COC1=C(C#N)C(=O)N(C)C1=O` returned a melting point of 123 to 125 °C.

In turn, `NCC(=O)NCCCn1cc(-c2ccccc2)c2ccccc2c1=O` displayed a melting point of 141 °C.

In turn, `c1csc(-c2ccnc(-c3cc(-c4cccs4)ccn3)c2)c1` yielded a melting point of over 250 °C.

For `COc1ccc(/C=C/c2nc3c(c(=O)n(C)c(=O)n3C)n2C)c(OC)c1OC`, the melting point is 187 to 188 °C.

As for `CCC(=O)NC1=NN(c2nc3ccccc3s2)C(c2ccc(C)cc2)C1` (stereo unspecified), the melting point is 208 to 209 °C.

Compound `CC(C)(C)OC(=O)N1C2CCC1CN(CC(O)COc1ccc(C#N)cc1)C2` (stereo unspecified) yielded a melting point of 98 to 104 °C.

`CCc1ncc(CCCO)n1C` showed a melting point of 69 to 71 °C.

In the case of `Nc1ccc(/C=C/c2ccccc2)cc1`, the melting point is 151 °C.

With `O=C(O)CCc1ccc2c(c1)C(=O)c1ccccc1CO2`, the melting point fell in the range of 128 to 130 °C.

`CCn1cc(C(=O)O)c(=O)c2cnc(N3CCN(Cc4ccccc4)CC3)nc21` registered a melting point of 207 °C.

On to `NS(=O)(=O)c1ccc(N2CCN(CCC3=CCCc4ccccc43)CC2)cc1`, for which the melting point was 222 °C.

The compound `CCCCC(Cc1ccc(OCCCNC(=O)c2ccc(-c3ccccn3)cc2)cc1)C(=O)O` (stereo unspecified) came in with a melting point of 151 to 152 °C.

`CC(=O)OC1CCC2(C)C3CCC4(C)C(C(C)=O)CCC4C3CC(Cl)C2(Cl)C1` (stereo unspecified): the melting point came out at 187 °C.

On to `CN1CCN(c2cccc(CS(=O)(=O)c3ccccc3)c2[N+](=O)[O-])CC1`, for which the melting point lay in the range of 180 to 182 °C.

`CC=CCSc1cc(C(=O)O)cc([N+](=O)[O-])c1-c1ccccc1`: the melting point fell in the range of 138 to 140 °C.

As for `CCCOc1ccccc1-c1cc(C)c(C(=O)O)c(=O)[nH]1`, the melting point was 175 to 177 °C.

For the compound `CC(Oc1cc2sc(NC(=O)NCCN3CCOCC3)nc2cc1Cl)c1c(Cl)ccc(F)c1Cl` (stereo unspecified), the melting point was in the range of 196 to 198 °C.

Turning to `COc1ccc(-c2nccc(N)n2)cc1`, the melting point lay within 102 to 104 °C.

Take `CCOC(=O)c1ccc(NC(=O)C=C(c2ccc(Br)cc2)c2ccc(Br)cc2)cc1`: the melting point lay in the range of 207 to 208 °C.

Consider `O=C(Nc1ccc(C(F)(F)F)cc1)Nc1ccc2[nH]c(C(F)(F)F)nc2c1`, for which the melting point fell in the range of 223 to 228 °C.

Compound `COc1ccc2c(c1)cc(C(=O)O)n2-c1ccccc1` displayed a melting point of 197 to 204 °C.

In the case of `Cc1nc2cc(C(=O)NC(C)C)c(NC(=O)c3cc(C(F)(F)F)nn3-c3ncccc3Cl)c(Cl)c2n1C`, the melting point fell in the range of 248 to 250 °C.

As to `O=C1N[C@H](Cc2ccc(C(F)(F)F)cc2)[C@H](c2ccncc2)O1` (racemic), the melting point was 212 to 213 °C.

Take `CCCCCCCCCCCCCCCCN(CC(O)CO)C(=O)CCCCC` (stereo unspecified): the melting point came out at 38.8 °C.

`Cc1c(C)c2c(c(C)c1O)CCC(C)(C(=S)N1CCN(c3ccc(Cl)cc3)CC1)O2` (stereo unspecified) showed a melting point of 154 to 155 °C.

Turning to `COP(=O)(Cc1cc(C(C)(C)C)c(O)c(C(C)(C)C)c1)OC`, the melting point is 155 °C.

With `CN(CCOc1ccc(C(N)=O)cc1)CCc1ccc(NS(C)(=O)=O)cc1`, the melting point came to 147 °C.

The compound `CC(C)C1=NC2=NC(SCc3ccccc3)(SCc3ccccc3)NN2C=C1` came in with a melting point of 65 to 66 °C.

Turning to `O=C(Nc1ccc(Oc2ccnc(N3CCCC3)n2)c2ccccc12)c1cc(F)cc(N2CCCCC2)c1`, the melting point lay within 111 to 113 °C.

On to `CC(=O)OCc1cc(COC(C)=O)n(C(c2ccccc2)(c2ccccc2)c2ccccc2)n1`, for which the melting point lay in the range of 119 to 121 °C.

With `Cc1nnc2n1-c1ccc(Cl)cc1C(N1CCOCC1)=NC2`, the melting point is 243 to 253 °C.

In turn, `O=c1cnc2c(NC(CO)CO)nc(SCc3cccc(C(F)(F)F)c3F)nc2[nH]1` had a melting point of 244 to 245 °C.

For `Cc1ccc(OCC(O)CNC(C)C)c([N+](=O)[O-])c1[N+](=O)[O-]` (stereo unspecified), the melting point lay within 122 to 124 °C.

Compound `COc1ccc(N2CCN(c3c(C)c(C)c4c(c3C)C(c3ccc(F)nc3)C(C)(C)O4)CC2)cc1` (stereo unspecified) came in with a melting point of 87 to 88 °C.

For `CCc1nc(NC)nc2c1ncn2C1CC(F)C(CO)O1` (stereo unspecified), the melting point fell in the range of 99 to 100 °C.

`O=C(NCc1ccccc1F)c1ccc2cnccc2n1` gave a melting point of 110 to 111 °C.

`Clc1ccc2c(NCc3ccccc3)c3cccn3nc2c1` gave a melting point of 184 to 186 °C.

Consider `O=C1CCC(N2Cc3c(OCc4ccc(CN5CCC(F)(F)CC5)cc4)cccc3C2=O)C(=O)N1` (stereo unspecified), for which the melting point is 193 to 195 °C.

Regarding `Cn1c(=O)c(-c2ccccc2)nc2cc3c(cc21)OC(F)(F)O3`, the melting point is 165 °C.

As to `CC(C)(C)NS(=O)(=O)c1ccccc1CCO`, the melting point lay within 43 to 45 °C.
